Data: publication PMC9306968, “A structural homologue of the plant receptor D14 mediates responses to strigolactones in the fungal phytopathogen Cryphonectria parasitica” (The New Phytologist, 2022)

Key:
CpD14 = assay: intrinsic tryptophan fluorescence titration; UPLC hydrolysis assay; denaturing ESI-MS covalent adduct; type: binding, Cryphonectria parasitica
From the text: intrinsic tryptophan fluorescence titration; UPLC hydrolysis assay; denaturing ESI-MS covalent adduct on CpD14 | The interaction between (+)‐GR24 and CpD14 was confirmed using tryptophan intrinsic fluorescence assay

RMS3/PsD14 = target: T1, RMS3/PsD14 (Lathyrus oleraceus, UniProt A0A109QYD3); assay: intrinsic tryptophan fluorescence titration (also nanoDSF and UPLC hydrolysis assay); type: binding
T1 sequence (A0A109QYD3 1-267): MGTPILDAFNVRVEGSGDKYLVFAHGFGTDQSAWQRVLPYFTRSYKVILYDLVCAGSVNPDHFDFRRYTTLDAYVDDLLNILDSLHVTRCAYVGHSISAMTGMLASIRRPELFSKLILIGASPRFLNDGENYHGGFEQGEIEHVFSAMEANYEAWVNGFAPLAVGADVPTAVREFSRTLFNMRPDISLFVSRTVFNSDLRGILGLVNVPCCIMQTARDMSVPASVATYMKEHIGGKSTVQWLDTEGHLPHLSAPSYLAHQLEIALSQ

## CC1=C[C@H](O/C=C2/C(=O)O[C@@H]3c4ccccc4C[C@H]23)OC1=O [(+)-GR24]
CpD14
  Kd: 203 ± 41.1 µM
RMS3/PsD14
  Kd: 9.33 ± 4.27 µM
